In US8765953B2, “Compounds and methods for the treatment of pain and other diseases” (Aquilus Pharmaceuticals, Inc., priority 2008, dated 2014):

How the values were obtained:
[1] = In-vitro human microsomal stability; assay type: in vitro ADME; settings: human microsomes, 1 microMolar compound, at T = 60 minutes
Method: Human and mouse microsomal stability was determined for select compounds following the method of Houston (Houston, J. B; Biochem. Pharmacol. 47, (1994),1469).
1 μM concentration of compound and separate human and mouse microsomes (0.3 mg/mL, BD bioscience) were used in the in-vitro assay. To ensure proper energy supply for microsomal degradation of compound, an energy regenerating system comprised of 100 mM potassium phosphate, 2 mM NADPH, 3 mM MgCl2, pH=7.4. and the microsomal protein is added to each sample and the resulting suspension is then incubated in duplicate for 60 min at 37° C. in a rotary shaker. A control is run for each test agent in duplicate omitting NADPH to detect NADPH-free degradation. At T=0 and T=60 min., an aliquot is removed from each experimental and control reaction and then mixed with an equal volume of ice-cold Stop Solution (consisting of 0.3% acetic acid in acetonitrile containing haloperidol and diclofenac as internal standards). […] The samples are then centrifuged to remove precipitated protein, and the supernatants are then analyzed by LC-MS/MS to determine the percentage of compound remaining. […] After separation on a C18 reverse phase HPLC column (Agilent, Waters, or equivalent) using an acetonitrile-water gradient system, peaks were analyzed by mass spectrometry (MS) using ESI ionization in MRM mode.

[2] = tested on: spinal nerve ligation (SNL) mouse model; test: Intrathecal (i.t.) SNL-mouse model of neuropathic pain, von Frey mechanical allodynia; assay type: in vivo, FVB male mice
Description: To measure the neuropathic pain inhibiting affects of the MMP inhibitors of the present invention, the spinal nerve ligation (SNL) mouse model was run on a select number of compounds. This model which began with the work of Bennet and coworkers (Bennet, G. J. et al. Pain, 33, (1988), 87-107) and was optimized by Kim and Chung (Kim, S. H.; Chung, J. M. Pain, 50, (1992), 355-363) entails first, under magnification, the removal of one-third of the transverse process and then identifying and then dissecting free the L5 spinal nerve from the adjacent L4 spinal nerve in the mouse. The L5 spinal nerve is then tightly ligated using 6.0 silk suture. The nerve injury leads to hyperalgesia which manifests itself by enhanced responses to mechanical, heat and/or cooling stimuli. In this case, mechanical hyperalgesia is tested via Von Frey monofilaments in which filaments of varying thicknesses and bending force are individually applied to the plantar surface of the foot of the mouse. The threshold force necessary for paw withdrawal decreases dramatically after the nerve surgery. Potent pain inhibitors will reverse this affect resulting in greater force needing to be applied to cause the rodent paw to withdrawal.
Following preoperative baseline (Day −2) paw threshold measurement, FVB male mice were subjected to SNL injury (Day −1). The next day (Day 0) after SNL surgery, the animals were tested for post-operative baseline threshold measurements for mechanical allodynia; and the animals were then randomly assigned to one of 3 treatment groups (see Table 9). Over the course of the study, paw withdrawal threshold of these animals was measured in response to mechanical stimulation using the von Frey Monofilament Test.
To avoid systemic effects of the MMP inhibitors, the MMP inhibitors of the present invention were delivered into the cerebral spinal fluid (CSF) space around lumbosacral spinal cord via intrathecal (i.t.) administration, with the idea of targeting MMPs in the DRG, spinal cord, and spinal CSF. Intrathecal MMP inhibitor administration could then target not only spinal cord cells but also DRG cells. Each intrathecal (i.t.) injection was carried out according to the technique of Hylden and Wilcox (Hylden J L, Wilcox G L. Eur. J. Pharmacol., 67, (1980), 313-6) 5.2 mg of each of the MMP inhibitors were first dissolved in 140 microliters of DMSO and then put into 1260 microliters of 0.5% hydroxypropyl cellulose (HPC) in water to make a fine suspension composed of compound in 10% DMSO-0.5% hydroxypropyl cellulose. 10 microliters of the mixture was injected into the intrathecal space of male FVB mice (weighing 22-25 grams each and obtained from the Jackson Laboratories, Bar Harbor, Me.), by lumbar puncture in a volume of 10 μl/mouse using a Hamilton microsyringe via a 30 gauge needle inserted between lumbar vertebrae 5 and 6. In brief, each animal was held firmly by the pelvic girdle in one hand, while the needle was inserted into the tissue on the right side of the L5 or L6 spinous process. The needle was moved forward and slipped into the groove between the spinous process and transverse process and gently moved forward to the intervertebral space at ˜10° angle. As the needle was inserted (˜0.5 cm) within the vertebral column a tail flick was evident, and the solution was then injected.
Tactile Allodynia Test. Mechanical allodynia was measured using the calibrated von Frey filaments (Semmes-Weinstein monofilaments; Stoelting, Wood Dale, Ill., U.S.A.). The plantar surface of the left injured paw of each animal was tested as described by Chaplan et al. (Journal of Neuroscience Methods, 53, (1994), 55-63). The Fifty percent paw withdrawal threshold response was determined by sequentially increasing or decreasing the stimulus strength according to the “up-down method” of Dixon (Annual Review Pharmacology Toxicology, 20, (1980), 441-462). […]

- Mean Remaining Parent with NADPH (%) ([1]; with NADPH): 86%
- Mean Remaining Parent without NADPH (%) ([1]; without NADPH (control)): 89%
Structure (SMILES): Cc1ccc(C#Cc2ccc(S(=O)(=O)N[C@H](Cc3c[nH]c4ccccc34)C(=O)O)s2)cc1 [Compound 5, (R)-3-(1H-Indol-3-yl)-2-(5-p-tolylethynyl-thiophene-2-sulfonylamino)-propionic acid]
- Paw withdrawal threshold, mean, Day 5 ([2]; i.t. 10 μl/mouse daily day 1-6): 0.079 grams
- Paw withdrawal threshold, mean, Day 7 ([2]; i.t. 10 μl/mouse daily day 1-6): 0.190 grams
- Paw withdrawal threshold, mean, Day 1 ([2]; i.t. 10 μl/mouse daily day 1-6, testing 2 hr after first i.t. injection): 0.098 grams
- Paw withdrawal threshold, mean, Day 0 Postoperative Baseline ([2]; i.t. study, post operative injury baseline, before treatment): 0.050 grams
- Paw withdrawal threshold, mean, Day(-2) Pre-operative Baseline ([2]; i.t. study, testing prior to SNL injury, before treatment): 1.265 grams
